Experimental data from patent US20250186396A1, “COMPOSITIONS AND METHODS FOR THE TREATMENT OF GLIOBLASTOMA WITH A DUAL TARGETING ANTI-TUMOR COMPOSITION” (Northwestern University, priority 2023, published 2025).

How the values were obtained:
PD-L1 = test: Immunoblots for PD-L1 in PTEN-deficient GBM cells; format: cell-based, human and mouse; conditions: immunoblot; U87, PTEN-KO SF763, CT2A, 005 GSC, GSC23, GSC7-10; 24 hours
Method: Cell Culture. The GBM cell lines U87, U251, SF763, LN229, and CT2A, as well as 293T cells were cultured in Dulbecco's Modified Eagle's Medium (DMEM; Gibco, #11995-065). The mouse glioma cell line GL261 cells and SIM-A9 microglia were cultured in Dulbecco's Modified Eagle Medium-Ham's F12 medium (Gibco, #10565-018). HMC3 microglia were cultured in Eagle's Minimum Essential Medium (ATCC, #30-2003). THP-1 macrophages were cultured in RPMI 1640 medium (Gibco, #11875093). All cell lines were cultured in the indicated medium containing 10% fetal bovine serum (FBS; Fisher Scientific, #16140071) and 1:100 antibiotic-antimycotic (Gibco, #15140-122), and were purchased from the American Type Culture Collection (ATCC). Human GSCs (GSC23 and GSC7-10) and mouse GBM tumor-derived 005 GSCs and QPP7 GSCs were cultured in neural stem cell (NSC) proliferation media (Millipore, #SCM005) containing 20 ng/mL epidermal growth factor (EGF; PeproTech, #AF-100-15) and basic fibroblast growth factor (bFGF; PeproTech, #100-18B). Human GSCs were gifted by Dr. Frederick F. Lang from the Brain Tumor Center (The University of Texas MD Anderson Cancer Center). 005 GSCs and QPP7 GSCs were provided by Dr. Samuel D. Rabkin (Massachusetts General Hospital) and Dr. Jian Hu (The University of Texas MD Anderson Cancer Center), respectively. PTEN CRISPR KO in SF763 and LN229 cells were generated. […]

HMC3 microglia = test: Transwell migration assay of HMC3 microglia with U87 conditioned media; format: cell-based; conditions: conditioned media from U87 cells pretreated with BAPN 200 μM; 10 hours
Method: Migration assay. To study the relationship between macrophages and microglia, HMC3 microglia or THP-1 macrophages were seeded into the 24-well plates (receiver wells) using serum-containing culture medium for 24 hours to reach 40-60% confluence and then stimulated with or without U87 cell CM for additional 24 hours. After that, cells were washed with PBS twice and cultured in serum-free culture medium. For upper chambers, THP-1 macrophages (2×10^5) and HMC3 microglia (5×10^4) were suspended in serum-free culture medium and seeded into […] (Corning, #3421) and […] (Corning, #3422) 24-well Transwell inserts, respectively. To study the role of GBM cells on microglia migration, HMC3 microglia (5×10^4) were suspended in serum-free culture medium and seeded into 8.0 μm inserts. SIM-A9 microglia (1×10^5) and THP-1 macrophages (1×10^5) were suspended in serum-free culture medium and seeded into 5.0 μm inserts. The CM from LOX-depleted or inhibited U87 cells, LOX-overexpressed GL261 cells, or SR9009-treated U87 cells were added to the receiver wells, respectively. After 10 hours, migrated cells were fixed with 4% PFA (ThermoFisher, #J61899.AK) for 30 minutes and stained with crystal violet (Sigma-Aldrich, #C-3886) for another 30 minutes. The membrane inserts were washed with water and imaged under an EVOS microscope. The number of transferred cells was counted using ImageJ.

## N#CCCN [BAPN, β-aminopropionitrile]
PD-L1
  expression of PD-L1: upregulated
HMC3 microglia
  migration of HMC3 microglia: increased the migration ability
